Measurements taken from US20110224291A1, “SKIN EXTERNAL COMPOSITION FOR INHIBITING EPIDERMAL HYPERPROLIFERATION AND ALLEVIATING INFLAMMATORY SKIN DISEASES CONTAINING ORTHODIHYDROXYISOFLAVONE DERIVATIVES” (priority 2008, published 2011).

Tests used:
[1] = tested on: Dickkopf homolog 3 (DKK3); assay: DKK3 expression in keratinocytes by Q-RT-PCR; assay type: cell-based; conditions: human neonatal keratinocyte cells, 10 μM, 24 hours, FIG. 2
Procedure: (§1) Human neonatal keratinocyte cells purchased from Welskin Co (Seoul, Korea) were subcultured in a 25 cm^2 T-flask and incubated in a CO2 incubator under conditions of 37° C. and 5% CO2. Generally, the experiment was carried out after the cells have been subcultured for 2-3 passages. According to the method of Lonza, Inc. (Walkersville, Md., USA), the medium used in the cell culture was prepared by adding a KGM-2 bullet kit (bovine pituitary extract (2 mg), human epidermal growth factor (0.5 ml), insulin (0.5 ml), hydrocortisone (0.5 mg), transferrin (0.5 mg), epinephrine (0.5 mg), and gentamicin sulfate+amphotericin-B (GA-1000, 0.5 ml)) to 500 ml of KBM-2 medium (Clonetics CC-3103). When a confluence of about 50% was shown 2 days after the subculture of the cells, the serum was starved. After 24 hours, the cells were treated with 10 μM of each of a negative control, an Angelica gigas Nakai extract (positive control), daidzein and Examples 1-6 for 24 hours. […]
(§2) Then, RNA of the cells was isolated using Trizol reagent (Invitrogen, Carlsbad, Calif., USA). The isolated RNA was purified with Qiagen RNeasy kit (Qiagen, Valencia, Calif.), and then the quality of the RNA was confirmed using the Agilent 2100 Bio-Analyzer (Agilent Technologies, Santa Clara, Calif., USA). cDNA was synthesized from the RNA using a superscript reverse transcriptase (RT) kit (Invitrogen, Carlsbad, Calif.) and was quantitatively analyzed through a real time-reverse transcription polymerase chain reaction (Q-RT-PCR). The changes in the expression patterns of genes in the keratinocyte cells were analyzed using the TaqMan®gene expression assay kit (Applied Biosystems, Foster City, Calif.), Dickkopf homolog 3 (DKK3)-HS00247426_m1, and Frizzled homolog 1 (FZD1)-HS00268943_s1 (TagMan primer catalog name), thus confirming the expression levels of DKK3 and FZD1.

[2] = tested on: Frizzled homolog 1 (FZD1); assay: FZD1 expression in keratinocytes by Q-RT-PCR; assay type: cell-based; conditions: human neonatal keratinocyte cells, 10 μM, 24 hours, FIG. 3
Procedure: as §1, §2

TNF-alpha = assay: Anti-inflammatory effect: TNF-alpha gene expression in LPS-treated HaCaT cells; assay type: cell-based, human; conditions: 10 μM pretreatment 2 hours, 1 μg/ml LPS 8 hours, mRNA normalized to GAPDH, FIG. 4
Procedure: In this Example, human keratinocyte HaCaT cells obtained from the Korean Cell Line Bank (Seoul, Korea) were used. The HaCaT cells were seeded into a DMEM medium containing 10% (v/v) FBS, 100 U/ml penicillin and 100 μg/ml streptomycin and were incubated in an animal cell incubator under conditions of 37° C. and 5% CO2. The HaCaT cells prepared at 1.5×10^6 cells/well were adapted in FBS-free medium for 3 hours. The cells were pretreated with 10 μM of each of 4′,6,7-trihydroxyisoflavone, 3′,4′,7-trihydroxyisoflavone, daidzein and TGZ for 2 hours, 1 μg/ml of lipopolysaccharide (LPS) was added thereto, and then the cells were additionally cultured for 8 hours. Total RNA of the cells was extracted using TRIzol™ (GIBCO BRL, MD, USA) and stored at −80° C. 1 μg of the total RNA was added to 25 μl of a reverse transcription reaction buffer containing 50 mM Tris-HCl (pH 8.3), 75 mM KCl, 3 mM MgCl2, 0.1 M DTT, 10 mM dNTP and 40 U/μl RNase inhibitor. 0.5 μg/μl oligo(dT)16 primers and 200 U SuperScript per Script II reverse transcriptase (GiboBRL) were added thereto, and the total RNA was subjected to a reverse transcription reaction at 42° C. for 1 hour. Then, 2.5 μl of the reverse transcription reaction solution was added to […] of a PCR reaction buffer containing 0.04 U AmpliTaq DNA polymerase (Perkin Elmer, Shelton, Conn.), 50 mM Tris-HCl (pH 8.3), 0.25 mg/ml bovine serum albumin, 3 mM MgCl2, 0.25 mM dNTPs and a 1/50,000 dilution of SYBR green I (Molecular Probes, Eugene, Oreg.), and 10 μM primers were added thereto. Then, a PCR reaction was subjected to PCR amplification. The PCR reaction consisted of 30 cycles of denaturation at 94° C. for 30 sec, annealing at 53° C. for 30 sec and extension at 72° C. for 1 min. The relative mRNA levels were analyzed by measuring the change in fluorescence of SYBR green I using ICycler software. As an internal standard, GAPDH (glyceraldehyde 3-phosphate dehydrogenase) was used to normalize the quantitative expression level of the gene TNF-alpha.

[3] = tested on: Human keratinocyte HaCaT cells; assay: Keratinocyte division inhibition, BrdU colorimetric ELISA; assay type: cell-based; conditions: HaCaT cells, 1, 10 and 50 μM, 48 hours, BrdU analysis, FIG. 1; for keratinocyte division-inhibiting effect: compared with daidzein
Procedure: Human keratinocyte HaCaT cells were added to 10% fetal bovine serum-containing DMEM medium [Dulbecco's modified Eagle's Medium; Gibco 1210-0038] and cultured in a 24-well plate at a confluence of 70%. The HaCaT cells were treated with 1, 10 and 50 μM of each of 4′,6,7-trihydroxyisoflavone and 3′,4′,7-trihydroxyisoflavone, and after 48 hours, subjected to BrdU analysis. At 12 hours before the BrdU analysis was carried out, BrdU labeling was carried out. The BrdU analysis was carried out using a BrdU colorimetric ELISA kit (Roche) according to the manufacturer's instruction. First, the culture broth was treated with BrdU solution for 12 hours, and then the medium was removed. The cells were fixed, and a peroxidase-conjugated BrdU antibody was added thereto, after which the cells were treated with a substrate solution to induce color development. The degree of color development was measured with an ELISA reader. As positive controls, calcium known to be used for the differentiation of keratinocytes, and troglitazone (TGZ) known to inhibit cell division and induce cell differentiation were used.

Structure (SMILES)	expression level of DKK3 [1]	expression level of FZD1 [2]	expression of the TNF-alpha gene (TNF-alpha)	concentration dependence of inhibition of keratinocyte division [3]	keratinocyte division-inhibiting effect [3]
O=c1c(-c2ccc(O)cc2)coc2cc(O)ccc12 [daidzein, reference compound]	significantly lower than those in the groups treated with the ortho-dihydroxyisoflavone derivatives	significantly lower than those in the groups treated with the ortho-dihydroxyisoflavone derivatives	slightly inhibited		
O=c1c(-c2ccc(O)c(O)c2)coc2cc(O)ccc12 [3′,4′,7-trihydroxyisoflavone]	effectively promoted the expression	effectively promoted the expression	strongly inhibited	concentration-dependent manner	significantly superior to that of daidzein
O=c1c(-c2ccc(O)cc2)coc2cc(O)c(O)cc12 [4′,6,7-trihydroxyisoflavone]	effectively promoted the expression	effectively promoted the expression	strongly inhibited	concentration-dependent manner	significantly superior to that of daidzein
